What was measured:
Assay in all cases: relative viability (nuclei count vs DMSO), 5 days (fraction); higher = more cells survive
[1] = compound: Nc1ncn([C@H]2C[C@H](O)[C@@H](CO)O2)c(=O)n1 [Decitabine] + Cc1nc(Nc2ncc(C(=O)Nc3c(C)cccc3Cl)s2)cc(N2CCN(CCO)CC2)n1 [Dasatinib] (partner 0.075 µM)
Outline: (§1)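 Relative viability equals treated-well nuclei counts divided by vehicle-well nuclei counts. Counts came from 4× images of lung cancer cell lines grown in 1536-well plates for 5 days after pin-tool dosing on the day after seeding. Dosing used one drug alone or a fixed anchor-drug dose plus five library-drug doses (not always all listed) in √10 steps, and values are medians of duplicate plates.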

[2] = compound: COc1cc2c(Oc3ccc4[nH]c(C)cc4c3F)ncnc2cc1OCCCN1CCCC1 [Cediranib] + NC(=O)Nc1cc(-c2cccc(F)c2)sc1C(=O)N[C@H]1CCCNC1 [AZD7762] (partner 0.2 µM)
Outline: as §1

[3] = compound: COc1cc2c(Oc3ccc4[nH]c(C)cc4c3F)ncnc2cc1OCCCN1CCCC1 [Cediranib] + CC(C)C[C@H](NC(=O)[C@H](Cc1ccccc1)NC(=O)c1cnccn1)B(O)O [Bortezomib] (partner 0.002 µM)
Outline: as §1

[4] = compound: Nc1ncn([C@H]2C[C@H](O)[C@@H](CO)O2)c(=O)n1 [Decitabine] + CC(=O)c1c(C)c2cnc(Nc3ccc(N4CCNCC4)cn3)nc2n(C2CCCC2)c1=O [Palbociclib] (partner 0.5 µM)
Outline: as §1

Row | Cell Line | relative viability ([1]; first compound 0.04 µM) | relative viability ([1]; first compound 0.1265 µM) | relative viability ([1]; first compound 0.4 µM) | relative viability ([1]; first compound 1.265 µM) | relative viability ([1]; first compound 4 µM) | relative viability ([2]; first compound 0.04 µM) | relative viability ([2]; first compound 0.1265 µM) | relative viability ([2]; first compound 0.4 µM) | relative viability ([2]; first compound 1.265 µM) | relative viability ([2]; first compound 4 µM) | relative viability ([3]; first compound 0.04 µM) | relative viability ([3]; first compound 0.4 µM) | relative viability ([3]; first compound 1.265 µM) | relative viability ([3]; first compound 4 µM) | relative viability ([4]; first compound 0.04 µM) | relative viability ([4]; first compound 0.1265 µM) | relative viability ([4]; first compound 0.4 µM) | relative viability ([4]; first compound 1.265 µM) | relative viability ([4]; first compound 4 µM) | relative viability ([3]; first compound 0.1265 µM)
1 | HCC-827 | 0.139 | 0.317 | 0.325 | 0.284 | 0.267 | 0.226 | 0.455 | 0.193 | 0.163 | 0.198 | 1.03 | 0.967 | 1.11 | 1.08 | 0.231 | 0.311 | 0.294 | 0.262 | 0.181 | –
2 | HOP-62 | 0.634 | 0.622 | 0.284 | 0.14 | 0.147 | 0.612 | 0.397 | 0.263 | 0.446 | 0.712 | 0.322 | 0.672 | 0.68 | 0.842 | 0.326 | 0.327 | 0.195 | 0.136 | 0.273 | –
3 | LC-2-ad | 0.416 | 0.603 | 0.404 | 0.262 | 0.261 | 0.92 | 1.02 | 0.759 | 0.88 | 0.85 | 1.09 | 0.973 | 1.03 | 0.959 | 0.498 | 0.538 | 0.48 | 0.365 | 0.463 | 1.04
4 | LCLC-97TM1 | 0.535 | 0.507 | 0.42 | 0.222 | 0.119 | 0.418 | – | 0.329 | 0.244 | 0.287 | 0.351 | 0.643 | 0.769 | 0.578 | 0.207 | 0.197 | 0.171 | 0.152 | 0.22 | –
5 | LCLC-103H | 0.507 | 0.57 | 0.457 | 0.337 | 0.374 | 0.829 | 1.01 | 0.724 | 0.826 | 0.858 | 0.989 | 0.921 | 1.14 | 1.11 | 0.429 | 0.49 | 0.444 | 0.442 | 0.501 | 1.12
6 | LOU-NH91 | 0.43 | 0.551 | 0.627 | 0.491 | 0.519 | 0.803 | 0.86 | 0.693 | 0.697 | 0.803 | 0.409 | 0.517 | 0.513 | 0.488 | 0.514 | 0.592 | 0.588 | 0.507 | 0.415 | 0.475
7 | LU99A | 0.508 | 0.615 | 0.653 | 0.481 | 0.373 | 0.457 | – | 0.338 | 0.287 | 0.41 | 1.27 | 1.12 | 0.942 | 1.17 | 0.39 | 0.434 | 0.445 | 0.321 | 0.291 | –
8 | LXF-289 | 0.201 | 0.193 | 0.129 | 0.118 | 0.0831 | 1.12 | – | 1.02 | 0.971 | 1.11 | 1.04 | 0.969 | 0.97 | 0.958 | 0.539 | 0.418 | 0.346 | 0.27 | 0.238 | 0.87
9 | NCI-H23 | 0.689 | 0.653 | 0.356 | 0.271 | 0.192 | 0.222 | 0.383 | 0.246 | 0.331 | 0.286 | 1.07 | 0.938 | 0.907 | 1.32 | 0.413 | 0.372 | 0.295 | 0.28 | 0.271 | –
10 | NCI-H322M | 0.246 | 0.327 | 0.299 | 0.285 | 0.349 | 0.621 | 0.671 | 0.495 | 0.424 | 0.565 | 1.29 | 1.32 | 1.24 | 1.28 | 0.439 | 0.485 | 0.554 | 0.479 | 0.463 | 1.56
11 | NCI-H441 | 0.335 | 0.266 | 0.26 | 0.211 | 0.206 | 1.26 | 1.25 | 1.07 | 1.16 | 1.18 | 0.304 | – | 0.498 | 0.934 | 0.214 | 0.198 | 0.183 | 0.138 | 0.205 | 0.688
12 | NCI-H460 | 0.453 | 0.682 | 0.341 | 0.239 | 0.183 | 0.727 | 0.679 | 0.584 | 0.574 | 0.616 | 1.06 | 1.01 | 0.987 | 1.39 | 0.174 | 0.289 | 0.185 | 0.0847 | 0.0625 | 1.23
13 | NCI-H647 | 0.212 | 0.261 | 0.196 | 0.104 | 0.0939 | 0.498 | 0.462 | 0.389 | 0.404 | 0.475 | 1.1 | 0.845 | 0.728 | 1.16 | 0.269 | 0.489 | 0.236 | 0.123 | 0.117 | 1.02
14 | NCI-H650 | 0.422 | 0.443 | 0.357 | 0.344 | 0.275 | 0.879 | 0.654 | 0.953 | 0.944 | 1.13 | 0.873 | 0.879 | 0.764 | 0.718 | 0.268 | 0.243 | 0.198 | 0.191 | 0.182 | 0.625

Reference: the supplement of paper PMC10307832
